Source: patent US10898469B2, “Imidazolylamide derivative” (Sumitomo Dainippon Pharma Co., Ltd., priority 2016, dated 2021)
Where two headings read alike, the source gives them in different places.

Key:
[1] = Pharmacokinetic assay in tumor-bearing mice where HCT-116 cells were transplanted (Test Example 3); format: in vivo; conditions: female, BALB/cAnNCrlj-nu/nu, plasma, tumor-bearing nude mouse; for concentration at 1 h: read-out: Plasma concentrations after oral administration, 1 hour; for concentration at 2 h: read-out: Plasma concentrations after oral administration, 2 hours; for concentration at 6 h: read-out: Plasma concentrations after oral administration, 6 hours; for concentration at 24 h: read-out: Plasma concentrations after oral administration, 24 hours
Method: A 7- to 12-week-old nude mouse (BALB/cAnNCrlj-nu/nu, female, CHARLES RIVER LABORATORIES JAPAN, INC.) received intradermal transplantation of human colorectal cancer-derived HCT-116 cells (ATCC) in an amount of 3×10^6 cells/mouse around the ventral part. […] Blood was collected 1, 2, 6, and 24 hours after administration, and centrifuged to afford plasma samples. Methanol was added to the plasma samples so as to be adjusted to 80% of the final concentration. The samples were centrifuged and filtered to be deproteinized. Then, the test compound was detected and quantitated with LC-MS/MS (API4000, AB SCIEX). In quantitation, a calibration curve was prepared with mouse plasma comprising a known amount of the compound and Bezafibrate was used for the internal standard.
The test in Test Example 3 was performed for the compounds of Examples.
The following table and FIGS. 1 to 5 show temporal changes of the plasma concentrations of compounds after oral administration.

[2] = tested on: HCT-116 cells; experiment: Drug efficacy assay in tumor-bearing mice where HCT-116 cells were transplanted (Test Example 4); format: in vivo; conditions: HCT-116 tumor-bearing nude mouse, oral, dosage 200 mg/kg, administration period 15 days
Description: The present compound can be used to evaluate the anti-tumor effect thereof according to the following assay. A 4- to 7-week-old nude mouse (BALB/cAnNCrj-nu/nu, female, CHARLES RIVER LABORATORIES JAPAN, INC.) received intradermal transplantation of human colorectal cancer-derived HCT-116 cells (ATCC) in an amount of 3×10^6 cells/mouse around the ventral portion. The engraftment of HCT-116 cells was observed 5 to 14 days after the transplantation, and then each compound suspended in a solvent such as 0.5% methylcellulose solution was orally administrated to the mouse in a dose of 1 to 200 mg/kg one to twice daily. The tumor volume was measured over time after the administration to evaluate the effect for reducing the tumor volume by the administration of each compound. The tumor volume can be calculated from the minor axis and major axis of the tumor measured with a digital caliper (Mitutoyo) according to the following equation: Tumor volume [mm^3]=[…] The tumor volume in the present-compound-administration group was compared with that of the control administration group treated with only a solvent such as 0.5% methylcellulose solution, and T/C value was calculated according the following equation to evaluate the anti-tumor effect of the present compound. […]

[3] = Solid state thermal stability; format: physicochemical; conditions: 70° C., vessel left open; for solid state thermal stability (change of form): stored for 12 weeks
Method: The solid state thermal stability was measured for the compounds of Examples 237 and 238 according to the following method. The compounds of Examples 237 and 238 were put into an isothermal vessel set at 70° C., and the samples were stored for 12 weeks under the condition that the vessel was left open. Each elemental analysis result for each compound after 12 weeks is shown as follows.

[4] = tested on: FaDu cells; experiment: Inhibition test for sphere-forming ability of cancer cells in the presence of BSA (Test Example 2), FaDu; format: cell-based, human; conditions: in the presence of 5% BSA, cultured 4 days
Procedure, shortened: (§1)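 Spheres grown 4 days in ultra-low-attachment wells, 350-800 cells/well, in DMEM/F12 with 2% B27, 20 ng/mL EGF, 10 ng/mL bFGF, 5 μg/mL insulin and 5% BSA; 0.1% DMSO final. Viable cells read by CellTiter-Glo luminescence; Sphere IC50 (μmol/L) for 50% proliferation inhibition.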

[5] = tested on: HT-29 cells; experiment: Inhibition test for sphere-forming ability of cancer cells in the presence of BSA (Test Example 2), HT-29; format: cell-based, human; conditions: in the presence of 5% BSA, cultured 4 days
Procedure, shortened: as §1

[6] = tested on: HCT-116 cells; experiment: Inhibition test for sphere-forming ability of cancer cells in the presence of BSA (Test Example 2), HCT-116; format: cell-based, human; conditions: for IC50: HCT-116 cells, in the presence of 5% BSA, cultured 4 days
Procedure, shortened: as §1

[7] = tested on: HT-29 cells; experiment: Inhibition test for sphere-forming ability of cancer cells (Test Example 1), HT-29; format: cell-based, human; conditions: concentration for 50% inhibition of cell proliferation, read-out: IC50 (μmol/L) HT-29 (Sphere IC50 value)
Procedure, shortened: (§2)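 Luminescent ATP viability readout (CellTiter-Glo) after 4 days of compound exposure gave the concentration for 50% inhibition of sphere proliferation. Cells grew as spheres at 350-800 cells/well under ultra-low attachment in serum-free medium containing B27, EGF and bFGF, with 0.1% final DMSO.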

[8] = tested on: HCT-116 cells; experiment: Inhibition test for sphere-forming ability of cancer cells (Test Example 1), HCT-116; format: cell-based, human; conditions: for IC50: HCT-116 cells, concentration for 50% inhibition of cell proliferation, read-out: IC50 (μmol/L) HCT-116 (Sphere IC50 value)
Procedure, shortened: as §2

[9] = tested on: FaDu cells; experiment: Inhibition test for sphere-forming ability of cancer cells (Test Example 1), FaDu; format: cell-based, human; conditions: concentration for 50% inhibition of cell proliferation, read-out: IC50 (μmol/L) FaDu (Sphere IC50 value)
Procedure, shortened: as §2

[10] = oral single dose 100 mg/kg, 20% Labrasol
[11] = oral single dose 60 mg/kg, 0.5% methylcellulose
[12] = oral single dose 150 mg/kg, 0.5% methylcellulose

## CC(=O)Nc1ccc(/C=C/C(=O)Nc2cn(Cc3cccc(C(F)(F)F)c3)cn2)cc1.Cl [Example 122, (E)-N-(1-(3-trifluoromethyl-benzyl)-1H-imidazol-4-yl)-3-(4-(acetylamino)phenyl)acrylamide]
[1]; [10]
  concentration at 1 h: 160 ng/mL
  concentration at 2 h: 642 ng/mL
  concentration at 6 h: 467 ng/mL
  concentration at 24 h: 221 ng/mL
[2]
  T/C: 51%

## COc1ccc(/C=C/C(=O)Nc2cn(Cc3cccc(C(F)(F)F)c3)cn2)cc1OCCO [Example 128]
[1]; [10]
  concentration at 1 h: 4700 ng/mL
  concentration at 2 h: 610 ng/mL
  concentration at 6 h: 644 ng/mL
  concentration at 24 h: 13 ng/mL

## COc1ccc(C(=O)Nc2cn(Cc3cc(F)c(F)c(F)c3)cn2)cc1OC.Cl [Example 237, 3,4-dimethoxy-N-[1-(3,4,5-trifluorobenzyl)-1H-imidazol-4-yl]benzamide]
[1]; [11]
  concentration at 1 h: 13200 ng/mL
  concentration at 2 h: 9760 ng/mL
  concentration at 6 h: 3390 ng/mL
  concentration at 24 h: 4 ng/mL
[3]; 12 weeks
  Elemental analysis C (%) measured value after 12 weeks: 54.71%
  Elemental analysis Cl (%) measured value after 12 weeks: 4.00%
  Elemental analysis F (%) measured value after 12 weeks: 13.74%
  Elemental analysis H (%) measured value after 12 weeks: 4.31%
  Elemental analysis N (%) measured value after 12 weeks: 10.28%
[3]
  solid state thermal stability (change of form): changed to 0.5 hydrochloride 0.5 hydrate

## N#Cc1ccc(/C=C/C(=O)Nc2cn(Cc3cccc(Cl)c3)cn2)cc1OCCO [Example 129]
[1]; [10]
  concentration at 1 h: 465 ng/mL
  concentration at 2 h: 309 ng/mL
  concentration at 6 h: 271 ng/mL

## COc1ccc(C(=O)Nc2cn(Cc3cc(F)c(F)c(F)c3)cn2)cc1OC [Example 238, 3,4-Dimethoxy-N-[1-(3,4,5-trifluorobenzyl)-1H-imidazol-4-yl]benzamide tosilate]
[3]; 12 weeks
  Elemental analysis C (%) measured value after 12 weeks: 55.51%
  Elemental analysis F (%) measured value after 12 weeks: 10.15%
  Elemental analysis H (%) measured value after 12 weeks: 4.33%
  Elemental analysis N (%) measured value after 12 weeks: 7.48%
  Elemental analysis S (%) measured value after 12 weeks: 5.62%
[3]
  solid state thermal stability (change of form): not changed

## O=C(/C=C/c1cccnc1)Nc1cn(Cc2cccc(Cl)c2)cn1 [Example 120, (E)-N-(1-(3-chlorobenzyl)-1H-imidazol-4-yl)-3-(pyridin-3-yl)acrylamide]
[1]; [12]
  concentration at 1 h: 9220 ng/mL
  concentration at 2 h: 7040 ng/mL
  concentration at 6 h: 1200 ng/mL
  concentration at 24 h: 142 ng/mL

## CC(=O)Nc1ccc(/C=C/C(=O)Nc2cn(Cc3cccc(OC(F)(F)F)c3)cn2)cc1 [Example 123]
[1]; [10]
  concentration at 1 h: 287 ng/mL
  concentration at 2 h: 837 ng/mL
  concentration at 6 h: 79 ng/mL
  concentration at 24 h: 62 ng/mL

## COc1ccc(C(=O)Nc2cn(Cc3c(F)c(F)c(F)c(F)c3F)cn2)cc1OC [Example 157]
[4]
  IC50: 5640 nM
[5]
  IC50: 7.42 µM
[6]
  IC50: > 10000 nM
[7]
  IC50: 6.89 µmol/L
[8]
  IC50: 7.33 µmol/L
[9]
  IC50: 8.46 µmol/L

## N#Cc1ccc(/C=C/C(=O)Nc2cn(Cc3cccc(C(F)(F)F)c3)cn2)cc1OCCO [Example 36, (E)-3-(4-Cyano-3-(2-hydroxyethoxy)phenyl)-N-(1-(3-(trifluoromethyl)benzyl)-1H-imidazol-4-yl)acrylamide]
[4]; Homo sapiens, 96 h
  IC50: 60 nM
[5]; Homo sapiens, 96 h
  IC50: 0.52 µM
[6]; Homo sapiens, HCT-116, 96 h
  IC50: 690 nM
[6]; Test Example 2, in the presence of 5% BSA, summary in words, cell line not given (HCT-116, HT-29, FaDu tested)
  inhibitory effect on the sphere-forming ability of cancer cells: particularly potent inhibitory effect
[7]; Homo sapiens
  IC50: 0.06 µmol/L
[8]; Homo sapiens
  IC50: 0.08 µmol/L
[8]; Test Example 1, summary in words, cell line not given (HCT-116, HT-29, FaDu tested)
  inhibitory effect on the sphere-forming ability of cancer cells: particularly potent inhibitory effect
[9]; Homo sapiens
  IC50: 0.08 µmol/L
